Patent US11274295B2, “Methods for generating pools of variants of a DNA template” (priority 2012, dated 2022)

Tests used:
Format in all cases: cell-based
[1] = test system: E. coli expressing WT APH(3′)II; test: MIC of aminoglycosides in E. coli expressing WT APH(3′)II, immediately following transformation; details: Stellar cells transformed with WT pBR322-EM7-neo, LB with carbenicillin 50 μg/mL, 24 hrs, MIC = lowest dilution with A600 < 0.025; for MIC: Escherichia coli, read-out: estimated 1:1 WT MIC
Protocol: (§1) To determine the minimum inhibitory concentration (MIC) of each of the six aminoglycosides: kanamycin, ribostamycin, G418, amikacin, neomycin, paromomycin (Sigma-Aldrich, St. Louis, Mo.) in E. coli expressing WT APH(3′)II, Stellar cells were transformed with pBR322-EM7-neo, recovered in SOC medium (New England Biolabs (NEB), Ipswich, Mass.) at 37° C. for 1 hr, diluted 1:100 with LB and then divided into 96-well growth blocks containing LB with carbenicillin (50 μg/mL) and 2-fold serial dilutions of aminoglycosides. After growth at 37° C. with shaking for 24 hrs, the culture densities were assessed by absorbance at 600 nm (A600) using a NanoDrop 8000 (Thermo Scientific, Billerica, Mass.).
(§2) The cultures were incubated in 50 mL tubes at 37° C. with shaking for 24 hours, pelleted by centrifugation and frozen at −20° C. Plasmids were isolated from the pellets using QIAprep Spin Miniprep kits (Qiagen). Each transformation and selection was performed in duplicate, using each of the two independently generated mutant libraries.

[2] = test system: E. coli transformed with APH(3′)II substitution libraries; test: Mutational scanning selection of APH(3′)II substitution libraries in E. coli
Text: To perform mutational scanning in vivo, we cultured E. coli transformed with APH(3′)II substitution libraries in liquid media supplemented with decreasing concentrations of one of six aminoglycoside antibiotics with diverse structures and a wide range of potencies: kanamycin, ribostamycin, G418, amikacin, neomycin or paromomycin (FIG. 3). To normalize the selective pressures induced by the different antibiotics, we first established their minimum inhibitory concentrations (MICs) for E. coli transformed with “wild-type” (WT) APH(3′)II and then used 1:1, 1:2, 1:4 and 1:8 dilutions of WT MICs for the respective library selections. We note that, with the exception of G418 and amikacin, even the 1:8 dilutions were sufficient to inhibit growth of untransformed E. coli. After overnight selection, plasmids were isolated from the surviving cells and their coding regions were shotgun sequenced to compare the amino acid composition of the selected libraries to that of the original input libraries (median coverage=51,400×).
as §2

untransformed e. coli = test: Growth inhibition of untransformed E. coli by aminoglycoside; details: Table 2 experiment
[3] = test system: E. coli transformed with APH(3′)II variants (pBR322[EM7-K1] through pBR322[EM7-K44]); test: MIC of aminoglycosides in E. coli carrying synthetic APH(3′)II variants, 2-fold dilution series, A600; details: E. coli expressing the APH(3′)II variant, 2-3 independent cultures
Protocol: as §1
To establish the substrate specificity of the synthetic APH(3′)II variants relative to WT APH(3′)II, glycerol stocks of the relevant clones (pBR322[EM7-K1] through pBR322[EM7-K44]) were streaked onto LB agar plates and cultured overnight at 37° C. Single colonies were then inoculated into 1 mL LB with 50 μg carbenicillin, incubated at 37° C. with shaking for 6 hours, diluted 1:100 into LB media, and then split into 96-well deep well plates containing LB with carbenicillin (50 μg/mL) and 2-fold serial dilutions of aminoglycosides dilution series. We note that the longer recovery in these follow-up experiments increased the absolute MICs compared to those we measured immediately following transformation).

CN[C@@H]1[C@@H](O)[C@@H](O[C@@H]2[C@@H](O)[C@H](O[C@H]3O[C@H]([C@@H](C)O)[C@@H](O)[C@H](O)[C@H]3N)[C@@H](N)C[C@H]2N)OC[C@]1(C)O [G418] was tested, and the “estimated 1:1 WT MIC” value [1] was 5 µg/mL and the selection pressure ([2]; at its 1:8 WT MIC) was “did not provide an effective selection pressure”.

With NCC[C@H](O)C(=O)N[C@@H]1C[C@H](N)[C@@H](O[C@H]2O[C@H](CN)[C@@H](O)[C@H](O)[C@H]2O)[C@H](O)[C@H]1O[C@H]1O[C@H](CO)[C@@H](O)[C@H](N)[C@H]1O [amikacin] the MIC [1] was 10 µg/mL, the “lowest concentration that reliably inhibited growth of untransformed e. coli” value (untransformed e. coli) was “(*) 12.5 ug/mL was the lowest amikacin concentration that reliably inhibited growth of untransformed e. coli in this experiment. These estimated MICs therefore reflect total or near total loss of activity on both susbtrates” and the selection pressure ([2]; at its 1:4 and 1:8 WT MICs) was “did not provide an effective selection pressure”.

Molecule NC[C@H]1O[C@H](O[C@H]2[C@H](O)[C@@H](O[C@H]3O[C@H](CO)[C@@H](O)[C@H](N)[C@H]3O)[C@H](N)C[C@@H]2N)[C@H](O)[C@@H](O)[C@@H]1O [kanamycin] has an MIC [1] of 225 µg/mL.

In the case of NC[C@@H]1O[C@H](O[C@H]2[C@@H](O)[C@H](O[C@@H]3[C@@H](O)[C@H](N)C[C@H](N)[C@H]3O[C@H]3O[C@H](CO)[C@@H](O)[C@H](O)[C@H]3N)O[C@@H]2CO)[C@H](N)[C@@H](O)[C@@H]1O [paromomycin], the MIC [1] is reported as 320 µg/mL.

Work on NC[C@H]1O[C@H](O[C@H]2[C@H](O[C@@H]3O[C@H](CO)[C@@H](O)[C@H]3O)[C@@H](O)[C@H](N)C[C@@H]2N)[C@H](N)[C@@H](O)[C@@H]1O [ribostamycin] yielded an MIC [1] of 2500 µg/mL.

For neomycin, the “estimated 1:1 WT MIC” value [1] was 40 µg/mL.

B1: KKA2_KLEPN_opt_K1: Wild-type aminoglycoside-3′-phosphotransferase-II (APH(3′)II) (protein, UniProt P00552 1-264, looked up)
Aminoglycoside …: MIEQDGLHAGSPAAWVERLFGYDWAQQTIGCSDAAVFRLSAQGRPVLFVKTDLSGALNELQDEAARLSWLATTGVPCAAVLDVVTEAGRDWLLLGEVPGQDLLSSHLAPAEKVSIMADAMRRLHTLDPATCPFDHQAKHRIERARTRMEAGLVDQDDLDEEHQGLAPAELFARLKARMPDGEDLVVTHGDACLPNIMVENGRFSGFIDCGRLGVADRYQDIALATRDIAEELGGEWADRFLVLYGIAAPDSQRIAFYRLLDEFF
modifications: codon-optimized
B1 was tested, and the “MIC of G418” value [3] was 50.00 µg/mL, the MIC of amikacin [3] was 25.00 µg/mL and the MIC of kanamycin [3] was 2000.00 µg/mL. It also gave an MIC of neomycin [3] of 400.00 µg/mL, an MIC of paromomycin [3] of 4000.00 µg/mL and an MIC of ribostamycin [3] of 15000.00 µg/mL.
